# Measurements from US10934305B2, “SHMT inhibitors” (The Trustees of Princeton University, priority 2016, dated 2021).
# pIC50: −log10 of the molar value.
# Tests used:
# [1] = biological target: human SHMT2 (Homo sapiens (Human), UniProt P34897); assay: SHMT2 in vitro enzymatic assay (coupled with MTHFD2, NADH absorption at 340 nm); assay type: biochemical; settings: SHMT2 IC50 (μM), Table 2
# Protocol: Inhibition of human SHMT by compounds in this disclosure is evaluated, for example, in their racemic forms in an in vitro assay.
# For the SHMT1 and SHMT2 in vitro enzymatic assays, the rate of 5,10-methylene tetrahydrofolate formation catalyzed by SHMT1/2 was indirectly evaluated by coupling with excess MTHFD2, which converts NAD+ to NADH allowing for reaction monitoring by absorption at 340 nm. […] Inhibition of initial reaction velocity was determined by adding various inhibitors at different concentrations and monitored as described. IC50 may be calculated based on this assay.
# [2] = test system: HCT116 cells; assay: Cell growth assay (resazurin), HCT116 wild-type; assay type: cell-based, human
# Protocol: (§1) Inhibitors of SHMT were evaluated in various cancer cell lines, in the presence and absence of mutations in mitochondrial folate pathway enzymes.
# (§2) The described cell lines for Examples 8 and 9 are cultured in 96-well plates in Dulbecco's modified eagle media (DMEM) without pyruvate (CELLGRO) with 10% dialysed fetal bovine serum (Invitrogen) in 5% CO2 at 37° C. Approximately 2,500 cells are plated in each well in 90 uL of media. After 24 hours cells are treated with various concentrations of inhibitor (time=0 hours), with or without formate. Growth was assessed at multiple time points (time=0, 24, 48, 72 hours) through measurement of fluorescence at 595 nm (excitation at 535 nm) on a BioTek micro titer plate reader after incubation with resazurin (0.01 mg/mL for 1.5 hours). IC50 curves are generated from percent inhibition of growth at 72 hours.
# [3] = test system: HCT116 cells; assay: Formate rescue assay in cell growth assay; assay type: cell-based, human; settings: for rescue of effects on cell growth by addition of formate: Table 5 cells
# Protocol: Application of formate is shown to rescue the anti-growth effect in certain human cells treated with SHMT inhibitors in a cell growth assay.
# as §2
# [4] = test system: SHMT2 knock-out HCT116 cells; assay: Cell growth assay, SHMT2 deletion (knock-out) HCT-116 cells; assay type: cell-based, human; settings: FIG. 3B
# Protocol: as §1, §2
# Clonal deletion cell lines of SHMT1, SHMT2, and SHMT1/2 were generated from the human colorectal carcinoma cell line HCT-116. Paired Cas9 nickase (Cas9n) containing constructs that encoded single-guide RNA sequences targeting SHMT1 or 2 were transiently transfected into cells, and mutant colonies from single clones were picked as described in Ducker et al., (2016) Reversal of Cytosolic One-Carbon Flux Compensates for Loss of the Mitochondrial Folate Pathway, Cell Metab 23, 1140-1153. […]
# [5] = test system: Jurkat cells; assay: Cellular growth assay, Jurkat T-cell leukemia line; assay type: cell-based, human; settings: 5 μM inhibitor + 1 mM sodium formate
# Protocol: (§3) Jurkat, REH, Farage, Daudi, Su-DHL2, Su-DHL-4, Su-DHL-6 cells were purchased from ATCC. Cells were subcultured in RPMI supplemented with 10% FBS. For growth assays, cells were seeded at 2×10^5/mL in 5 mL growth media in 12.5 cm flasks. Media was supplemented with sodium formate (1 mM), additional glycine (100 mg/L) and an SHMTi (5 uM). Cells were sampled daily, and counted using trypan blue staining and light microscopy.
# [6] = test system: Su-DHL-2 cells; assay: Cellular growth assay (cell count), Su-DHL-2 DLBCL line; assay type: cell-based, human; settings: Su-DHL-2, 5 μM inhibitor + 1 mM formate
# Protocol: as §3
# [7] = test system: Su-DHL4 cells; assay: Cellular growth assay, Su-DHL4 DLBCL line; assay type: cell-based, human; settings: SU-DHL4, RPMI, FIG. 12C
# Protocol: as §3
# [8] = test system: 8988T cells; assay: Growth of pancreatic cancer cell line 8988T; assay type: cell-based, human; settings: FIG. 9E
# [9] = test system: Su-DHL4 cells; assay: Apoptosis by flow cytometry (Annexin V surface staining); assay type: cell-based, human
# Text: Apoptosis was enhanced by co-treatment with formate. In contrast, as expected, formate rescued Jurkat E6-1 leukemia cells from apoptosis (FIG. 11C). Without wishing to be bound by theory, it is hypothesized that the failure of formate to rescue growth in the DLBCL cell lines is due to a requirement for both glycine and 1C units made by SHMT in these cells. When glycine is limiting, formate can enhance the cytotoxicity of SHMT inhibition. […] Mechanistically, by supplying 5,10-methylene-THF, formate may drives residual SHMT enzymatic function in the […] direction.
# In contrast, cell growth is further decreased in Su-DHL4 cells by addition of formate. This can be further exacerbated by removal of glycine from the media. […] Using flow cytometry, apoptosis of Su-DHL4 cells were studied with AnnexinV surface staining (FIGS. 12D and 12E).
# Chain of human SHMT2 (P34897 30-504): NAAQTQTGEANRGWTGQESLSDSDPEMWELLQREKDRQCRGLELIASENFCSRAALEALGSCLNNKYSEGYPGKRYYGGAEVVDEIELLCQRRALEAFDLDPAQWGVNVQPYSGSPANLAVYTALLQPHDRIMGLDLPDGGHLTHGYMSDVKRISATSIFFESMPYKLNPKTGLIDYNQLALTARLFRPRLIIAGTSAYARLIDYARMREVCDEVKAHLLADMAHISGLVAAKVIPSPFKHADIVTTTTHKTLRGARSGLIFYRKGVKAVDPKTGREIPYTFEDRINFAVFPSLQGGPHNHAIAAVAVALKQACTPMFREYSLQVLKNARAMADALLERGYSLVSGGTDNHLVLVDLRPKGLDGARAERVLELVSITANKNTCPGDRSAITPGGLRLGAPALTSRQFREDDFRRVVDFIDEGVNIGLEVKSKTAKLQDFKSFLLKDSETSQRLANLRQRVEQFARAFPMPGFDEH
compound,measurement,setting,value
Cc1n[nH]c2c1C(c1cc(C#CCCC(=O)O)cc(C(F)(F)F)c1)(C(C)C)C(C#N)=C(N)O2 (racemic) [1 (enantiomeric mixture)],IC50,[1],0.00065 µM
Cc1n[nH]c2c1C(c1cc(C#CCCC(=O)O)cc(C(F)(F)F)c1)(C(C)C)C(C#N)=C(N)O2 (stereo not drawn) [1 (enatiomerically active peak)],pIC50,"[2]; Table 2, read-out: HCT Cell IC50",5.87
same,% formate rescue,"[3]; HCT cells, Table 2",94.96%
same,IC50,[1],0.00079 µM
"Cc1n[nH]c2c1C(c1cc(C#CCCCO)cc(C(F)(F)F)c1)(C(C)C)C(C#N)=C(N)O2 (stereo not drawn) [Compound 61, 6-amino-4-(3-(5-hydroxypent-1-yn-1-yl)-5-(trifluoromethyl)phenyl)-4-isopropyl-3-methyl-1,4-dihydropyrano[2,3-c]pyrazole-5-carbonitrile]",growth (proliferation) of HCT116 cells,"[2]; native HCT116, FIG. 3A",inhibited growth
same,growth of SHMT2 knock-out HCT116 cells versus native,[4],increased potency
Cc1n[nH]c2c1[C@@](c1cc(C(F)(F)F)cc(C(F)(F)F)c1)(C(C)C)C(C#N)=C(N)O2 [HK-16 (PK-2)],rescue of growth inhibition by formate,[5],significantly rescued
same,rescue of growth inhibition by formate,[6],not rescued
Cc1n[nH]c2c1C(c1cc(N3CCCC3)cc(C(F)(F)F)c1)(C(C)C)C(C#N)=C(N)O2 (stereo not drawn) [HK-X1],rescue of effects on cell growth by addition of formate,[3],rescued
Cc1n[nH]c2c1C(c1cc(CO)cc(-c3ccccc3)c1)(C(C)C)C(C#N)=C(N)O2 (stereo not drawn) [HK-X2],rescue of effects on cell growth by addition of formate,[3],rescued
same,IC70,[7],5000 nM
same,concentration impairing cell growth,[8],< 100 nM
same,apoptotic fraction of cells,"[9]; Su-DHL4, inhibitor alone (control 2%)",8%
same,apoptotic fraction of cells,"[9]; Su-DHL4, inhibitor in the presence of formate",15%
same,apoptosis by Annexin V surface staining,[9]; Su-DHL-4,induced apoptosis
